Series [1] addresses T1, Serine/threonine-protein kinase Chk1 (Homo sapiens, UniProt O14757).
T1 sequence (O14757 whole entry): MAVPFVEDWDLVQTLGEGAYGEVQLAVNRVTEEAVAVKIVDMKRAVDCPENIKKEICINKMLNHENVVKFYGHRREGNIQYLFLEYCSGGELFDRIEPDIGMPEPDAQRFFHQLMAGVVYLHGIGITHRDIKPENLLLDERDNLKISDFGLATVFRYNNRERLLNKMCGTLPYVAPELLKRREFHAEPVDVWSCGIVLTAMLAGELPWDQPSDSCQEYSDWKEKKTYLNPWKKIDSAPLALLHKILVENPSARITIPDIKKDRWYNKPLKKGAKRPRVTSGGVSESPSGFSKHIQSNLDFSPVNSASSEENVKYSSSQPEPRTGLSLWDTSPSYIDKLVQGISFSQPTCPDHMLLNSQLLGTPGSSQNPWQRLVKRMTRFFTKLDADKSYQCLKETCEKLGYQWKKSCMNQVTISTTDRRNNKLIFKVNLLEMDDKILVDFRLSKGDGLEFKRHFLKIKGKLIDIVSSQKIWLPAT
Kind of series: Inhibition of CHK1 (unknown origin) incubated for 1 hr in presence of ATP by HTRF assay. A general note: In TR-FRET formats the signal depends on donor and acceptor labels being close together.

The subject of a further series is Z-138. In words: Antiproliferation activity against human Z138 cells assessed as reduction in cell viability incubated for 72 hrs by MTS assay. Format: functional, cell-based. The following applies: Z-138, 72 h.
For a further series, the system named is MV4-11. Kind of series: Antiproliferation activity against human MV4-11 cells assessed as reduction in cell viability incubated for 72 hrs by MTS assay. Type of series: functional, cell-based. The following applies: MV4-11, 72 h. (In general: Tetrazolium assays rely on reduction of a dye to a coloured formazan, in cell work by metabolically active cells.)

The target in another series is hERG (KCNH2) (Homo sapiens, UniProt Q12809). In words: Inhibition of human ERG expressed in HEK293 cells at 10 uM by patch-clamp technique relative to control. Format: cell-based. The following applies: HEK293 cells that express hERG. (In general: The patch-clamp technique gives a direct electrical read-out from membranes.)
hERG (KCNH2), sequence (Q12809 whole entry): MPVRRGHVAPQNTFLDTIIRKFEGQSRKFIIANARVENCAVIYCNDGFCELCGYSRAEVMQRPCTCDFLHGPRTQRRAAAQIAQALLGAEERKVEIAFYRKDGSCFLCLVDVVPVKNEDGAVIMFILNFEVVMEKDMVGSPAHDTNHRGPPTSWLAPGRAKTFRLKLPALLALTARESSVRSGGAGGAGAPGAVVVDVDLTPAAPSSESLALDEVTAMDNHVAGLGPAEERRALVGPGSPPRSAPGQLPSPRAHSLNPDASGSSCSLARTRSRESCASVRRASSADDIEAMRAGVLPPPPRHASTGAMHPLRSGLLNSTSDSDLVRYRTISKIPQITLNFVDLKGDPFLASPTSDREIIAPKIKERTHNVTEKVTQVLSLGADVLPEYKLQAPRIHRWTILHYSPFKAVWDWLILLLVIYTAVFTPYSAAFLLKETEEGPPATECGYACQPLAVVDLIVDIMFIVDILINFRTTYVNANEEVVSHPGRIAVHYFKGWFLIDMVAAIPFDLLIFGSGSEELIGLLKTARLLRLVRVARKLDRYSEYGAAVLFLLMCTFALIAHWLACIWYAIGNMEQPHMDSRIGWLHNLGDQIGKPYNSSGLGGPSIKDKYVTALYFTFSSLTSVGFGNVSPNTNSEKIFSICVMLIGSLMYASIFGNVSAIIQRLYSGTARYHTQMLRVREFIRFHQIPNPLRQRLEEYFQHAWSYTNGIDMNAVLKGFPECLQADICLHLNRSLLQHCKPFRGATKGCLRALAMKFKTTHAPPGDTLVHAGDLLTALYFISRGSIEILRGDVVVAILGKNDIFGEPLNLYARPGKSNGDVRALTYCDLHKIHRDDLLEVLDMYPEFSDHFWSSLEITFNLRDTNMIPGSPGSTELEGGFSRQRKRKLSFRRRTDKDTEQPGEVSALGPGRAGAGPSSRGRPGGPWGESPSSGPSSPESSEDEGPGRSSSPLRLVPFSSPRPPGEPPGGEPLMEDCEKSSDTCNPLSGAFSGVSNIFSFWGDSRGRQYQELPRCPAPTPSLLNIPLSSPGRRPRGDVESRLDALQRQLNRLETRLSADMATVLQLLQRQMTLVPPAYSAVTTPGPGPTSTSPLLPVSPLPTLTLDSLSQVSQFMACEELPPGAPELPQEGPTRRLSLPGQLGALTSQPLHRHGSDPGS

For orientation: IC50 means the midpoint of a concentration-inhibition curve. By inhibition is commonly meant the relative decrease from the control value, in per cent.

With `CNc1nc(Nc2cnc(C#N)c(OCCCN)c2)ncc1C(F)(F)F`, the IC50 in series [1] was 78 nM. Turning to `N#Cc1ccc(Nc2ncc(C(F)(F)F)c(NCCCNC=O)n2)cn1`, the IC50 in series [1] stood at 441 nM. Consider `CN(C)CCCNc1nc(Nc2ccc(C#N)nc2)ncc1C(F)(F)F`, for which the 50% inhibitory concentration (IC50) in series [1] is 458 nM. For `N#Cc1ccc(Nc2ncc(C(F)(F)F)c(NCC3CCCCN3)n2)cn1` (racemic), the IC50 in series [1] came out at 993 nM. The same measure, in the same setting: under `N#Cc1ccc(Nc2ncc(C(F)(F)F)c(N[C@@H]3CCCNC3)n2)cn1` stands 831 nM. As for `CNc1nc(Nc2cnc(C#N)c(OCC3CCNCC3)c2)ncc1C(F)(F)F`, the IC50 in series [1] was 213 nM.

For `CC(C)(CN)CNc1nc(Nc2ccc(C#N)nc2)ncc1C(F)(F)F`, the IC50 in series [1] worked out at 220 nM.

As for `N#Cc1ccc(Nc2ncc(C(F)(F)F)c(NCCCNC3CC3)n2)cn1`, the concentration for half-maximal inhibition (IC50) in series [1] was 270 nM. `N#Cc1ccc(Nc2ncc(C(F)(F)F)c(NCCN)n2)cn1`: in series [1], the IC50 amounted to 217 nM.

Regarding `CNc1nc(Nc2cnc(C#N)c(O[C@H]3CCCNC3)c2)ncc1C(F)(F)F`, the IC50 in series [1] is 355 nM.

For the compound `N#Cc1ccc(Nc2ncc(C(F)(F)F)c(NCC3CCCNC3)n2)cn1` (racemic), the IC50 in series [1] was found to be 62.6 nM. Turning to `N#Cc1ccc(Nc2ncc(C(F)(F)F)c(NCCCNCC(O)CO)n2)cn1` (stereo not given), the IC50 in series [1] amounted to 152 nM. Turning to `CNc1nc(Nc2cnc(C#N)c(N[C@H]3CCCNC3)c2)ncc1C(F)(F)F`, in series [1], the IC50 was 502 nM. Take `CC(N)CCNc1nc(Nc2ccc(C#N)nc2)ncc1C(F)(F)F` (racemic): the IC50 in series [1] was found to be 26.9 nM; in the series on Z-138, 5700 nM; in the series with MV4-11 it was 390 nM. On hERG (KCNH2), testing at 10 µM gave an inhibition of 31.6%. With `N#Cc1ccc(Nc2ncc(C(F)(F)F)c(NCC3CCNCC3)n2)cn1`, the IC50 in series [1] is 65.5 nM. For the compound `N#Cc1ccc(Nc2ncc(C(F)(F)F)c(NCCCNC3CCCCC3)n2)cn1`, the IC50 in series [1] amounted to 2260 nM. As to `N#Cc1ccc(Nc2ncc(C(F)(F)F)c(NCCCNC3CCCC3)n2)cn1`, the 50% inhibitory concentration (IC50) in series [1] is 5500 nM. As to `N#Cc1ccc(Nc2ncc(C(F)(F)F)c(NCCCCN)n2)cn1`, the IC50 in series [1] stood at 88.4 nM.

For `CNc1nc(Nc2cnc(C#N)c(N[C@H]3CC[C@@H](N)CC3)c2)ncc1C(F)(F)F`, the figures for the IC50 (in series [1]; with Z-138; in the series with MV4-11) were 8.5 nM, 50 nM and 10 nM, respectively. The compound also yielded an inhibition at 10 µM on hERG (KCNH2) of 84.2%. Turning to `COCCNCCCNc1nc(Nc2ccc(C#N)nc2)ncc1C(F)(F)F`, the IC50 in series [1] came to 577 nM. Consider `CNC(C)CCNc1nc(Nc2ccc(C#N)nc2)ncc1C(F)(F)F` (stereo not given), for which the values for the IC50 (in series [1]; with Z-138; in the series with MV4-11) were 16.3 nM, 350 nM and 150 nM, respectively. Besides, on hERG (KCNH2), testing at 10 µM gave an inhibition of 35.5%. The like results for `CNc1nc(Nc2cnc(C#N)c(N[C@@H]3CCCNC3)c2)ncc1C(F)(F)F` were, in that order, 12.2 nM, 720 nM, 50 nM and 81.1%. `N#Cc1ccc(Nc2ncc(C(F)(F)F)c(N[C@H]3CCNC3)n2)cn1`: in series [1], the IC50 is 214 nM. Same read-out and setting: under `N#Cc1ccc(Nc2ncc(C(F)(F)F)c(NC3CCCNC3)n2)cn1` (racemic) stands 69.5 nM. Take `N#Cc1ccc(Nc2ncc(C(F)(F)F)c(NCCCNCCN3CCOCC3)n2)cn1`: the IC50 in series [1] is 1610 nM. In the case of `CNc1nc(Nc2cnc(C#N)c(NCC3CCCCN3)c2)ncc1C(F)(F)F` (stereo not given), the IC50 in series [1] is 46.9 nM; in the series with Z-138, 210 nM; in the series on MV4-11, 160 nM. Turning to `CNc1nc(Nc2cnc(C#N)c(O[C@H]3CCNC3)c2)ncc1C(F)(F)F`, in series [1], the IC50 turned out to be 45 nM. Regarding `N#Cc1ccc(Nc2ncc(C(F)(F)F)c(NC[C@@H]3CCNC3)n2)cn1`, the IC50 in series [1] came to 40.3 nM; in the series on Z-138, 1170 nM; with MV4-11, 200 nM. As for `CNCCNc1cc(Nc2ncc(C(F)(F)F)c(NC)n2)cnc1C#N`, the IC50 was 27.9 nM in series [1], 270 nM with Z-138 and 180 nM in the series on MV4-11. This compound showed an inhibition at 10 µM against hERG (KCNH2) of 46.4%. With `N#Cc1ncc(Nc2ncc(C(F)(F)F)cn2)cc1O[C@@H]1CCCNC1`, the half-inhibitory concentration (IC50) in series [1] was 1010 nM. For the compound `CNc1nc(Nc2cnc(C#N)c(NCCN)c2)ncc1C(F)(F)F`, the IC50 turned out to be 19.1 nM in series [1], 400 nM in the series with Z-138 and 210 nM in the series with MV4-11. At hERG (KCNH2), this compound came in with an inhibition at 10 µM of 9%. The like results for `N#Cc1ccc(Nc2ncc(C(F)(F)F)c(NC[C@H]3CNCCO3)n2)cn1` were, in that order, 37.3 nM, 1130 nM, 400 nM and 31.3%. For the compound `N#Cc1ccc(Nc2ncc(C(F)(F)F)c(NCCCNCCO)n2)cn1`, the 50% inhibitory concentration (IC50) in series [1] is 217 nM. This compound also came in with an inhibition at 10 µM against hERG (KCNH2) of 35.2%. `CNc1nc(Nc2cnc(C#N)c(NC[C@@H]3CCCNC3)c2)ncc1C(F)(F)F`: the IC50 in series [1] came to 110 nM. For `CNc1nc(Nc2cnc(C#N)c(N[C@@H]3CCN(C)C3)c2)ncc1C(F)(F)F`, in series [1], the IC50 is 119 nM.

On to `CNc1nc(Nc2cnc(C#N)c(OC3CCNCC3)c2)ncc1C(F)(F)F`, for which the results for the concentration for half-maximal inhibition (IC50) (in series [1]; with Z-138; with MV4-11) were 32.7 nM, 440 nM and 240 nM, respectively. For `N#Cc1ccc(Nc2ncc(C(F)(F)F)c(N[C@H]3CCCNC3)n2)cn1`, the results for the IC50 (in series [1]; with Z-138; with MV4-11) were 28.3 nM, 160 nM and 270 nM, respectively. On hERG (KCNH2), this compound yielded an inhibition at 10 µM of 74.6%. Regarding `N#Cc1ccc(Nc2ncc(C(F)(F)F)c(NC3CN4CCC3CC4)n2)cn1` (stereo not given), the IC50 in series [1] stood at 307 nM. Still for that read-out and setting: with `CNc1nc(Nc2cnc(C#N)c(N[C@H]3CCNC3)c2)ncc1C(F)(F)F` the figure was 59.5 nM.

For `CNc1nc(Nc2cnc(C#N)c(OC[C@@H]3CCCNC3)c2)ncc1C(F)(F)F`, the IC50 in series [1] stood at 244 nM.

On to `CNc1nc(Nc2cnc(C#N)c(NC3CCNCC3)c2)ncc1C(F)(F)F`, for which the IC50 in series [1] was 101 nM. For `N#Cc1ccc(Nc2ncc(C(F)(F)F)c(NCCCNC3CCC3)n2)cn1`, the IC50 in series [1] was determined as 1490 nM. For the compound `CNc1nc(Nc2cnc(C#N)c(NC3CN4CCC3CC4)c2)ncc1C(F)(F)F` (stereo not given), the IC50 in series [1] is 608 nM. In the case of `CN1CCC(CNc2nc(Nc3ccc(C#N)nc3)ncc2C(F)(F)F)CC1`, the IC50 in series [1] came to 185 nM. As to `CNc1nc(Nc2cnc(C#N)c(NCCN(C)C)c2)ncc1C(F)(F)F`, the IC50 in series [1] stood at 34 nM; in the series with Z-138 it was 290 nM; with MV4-11, 260 nM. With `N#Cc1ccc(Nc2ncc(C(F)(F)F)c(N[C@H]3CC[C@@H](N)CC3)n2)cn1`, in series [1], the half-maximal inhibitory concentration (IC50) was 44.2 nM. Testing at 10 µM against hERG (KCNH2) gave an inhibition of 36.8%. On to `CNc1nc(Nc2cnc(C#N)c(OC3CCN(C)CC3)c2)ncc1C(F)(F)F`, for which the IC50 in series [1] was determined as 53.7 nM. Still for that read-out and setting: with `N#Cc1ccc(Nc2ncc(C(F)(F)F)c(NC3CC4CCC(C3)N4)n2)cn1` (stereo not given) the figure was 624 nM; with `CC(C)NCCCNc1nc(Nc2ccc(C#N)nc2)ncc1C(F)(F)F`, 1980 nM. On to `N#Cc1ccc(Nc2ncc(C(F)(F)F)c(NCCCNCCC(N)=O)n2)cn1`, for which, in series [1], the IC50 came to 107 nM. Consider `N#Cc1ccc(Nc2ncc(C(F)(F)F)c(NC[C@H]3CCCNC3)n2)cn1`, for which, in series [1], the IC50 stood at 111 nM. Turning to `CNc1nc(Nc2cnc(C#N)c(NCCCN)c2)ncc1C(F)(F)F`, the concentration for half-maximal inhibition (IC50) in series [1] was 51.1 nM. In the case of `CNc1nc(Nc2cnc(C#N)c(O[C@@H]3CCNC3)c2)ncc1C(F)(F)F`, the IC50 in series [1] was 21.3 nM; in the series on Z-138, 1410 nM; in the series on MV4-11 it was 430 nM. For `N#Cc1ccc(Nc2ncc(C(F)(F)F)c(NC3CCNCC3)n2)cn1`, in series [1], the IC50 was 120 nM.
